Entries after “also recorded” stand apart in the source; their conditions may differ.
Assays:
Format in all cases: cell-based, human
p53 and FoxO1 = assay: Western blot of p53 and FoxO1 acetylation in HUVECs; conditions: ANM 10 μM + HG 30 mM
Protocol: Please refer to FIG. 9A˜FIG. 9H, which are views showing HG-induced senescence prevented by ANM in human umbilical vein endothelial cells (HUVECs). As shown in the figures, to further delineate the protective effects of ANM on another cell system, experiments are designed to investigate the protective effect of ANM on HUVECs incubated in media containing either NG or HG alone or with ANM for 48 h. Cell viability is measured by MTT assay. […] Cell viability is determined by MTT assay. Percentage of viable cells are normalized with control cells (NG). […] In addition, in FIG. 9B, cellular senescence is determined by SA-β-gal activity assay. […] In addition, in FIG. 9C and FIG. 9D, total cell lysate is extracted and senescence-associated marker proteins including p16^INK4A, p21^CIP1 total and acetylated p53 and FoxO1 are measured by western blot analysis.
Cells are lysed by either RIPA lysis buffer or nuclear and cytoplasmic extraction reagents (Thermo Fisher Scientific). Protein concentrations are determined by Bio-Rad protein assay reagent (Bio-Rad Laboratories, Hercules, Calif.). […] The blots are detected using VL Chemi-Smart 3000 (Viogene Biotek, Sunnyvale, Calif.) with the enhanced chemiluminescence (ECL) western blotting reagent (Millipore, Billerica, Mass.).

HUVECs = assay: Intracellular ROS (DCFH-DA assay) in HUVECs; conditions: ANM 10 μM + HG 30 mM, 48 h; HG alone 14.3-fold
Protocol: The intracellular ROS level is quantified by utilizing DCFH-DA assay. […] However, treatment of HUVECs with ANM resulted reduced ROS levels (6.1-fold), compared with HUVECs in HG that are not treated with ANM. In addition, in FIG. 9G, western blot analysis is performed to determine the protein expression levels of HO-1 and NQO-1.

HNDFs [1] = assay: SA-β-gal senescence assay in HG-induced HNDFs; conditions: 72 h
Protocol: Next, the protective effects of antcins on HG-induced HNDF senescence are examined. In FIG. 2B, cells were incubated with ANA (10 μM), ANH (10 μM) and ANM (10 μM) in the presence of HG (30 mM) for 72 h. Cellular senescence is determined by SA-β-gal activity. […] After cells are co-incubated with HG and antcins (ANA, ANH and ANM) for 72 h, senescence is measured by SA-β-gal assay.
Therefore, in order to examine whether the ROS inhibitory effect may be extended to suppress HG-induced senescence, HG-induced senescenece eliminated by ANM is examined. In FIG. 4B, HNDFs are incubated with ANM (10 μM) or NAC (100 μM) in the presence or absence of HG (30 mM) for 72 h. Cellular senescence is determined by SA-β-gal assay. […] As is shown, cells are co-incubated with HG and ANM or NAC for 72 h.
Senescence-associated β-galactosidase (SA-β-gal) activity is determined in formaldehyde-fixed histochemical staining kit according to the manufacturer's instructions (Cell Signaling Technology, Danvers, Calif.). Briefly, cells are grown in 6-well plates at a density of 5×10^4 cells/well, and incubated with HG or test samples for 48 h (HUVECs) or 72 h (HNDFs). After incubation, cells are stained with SA-β-gal staining solution at pH 6.0 overnight and then the development of blue staining is observed and photographed under a bright-field microscope (Motic Electric Group, Xiamen, P.R. China).

HNDFs [2] = assay: Trypan blue exclusion cell proliferation assay in HNDFs; conditions: 72 h
Protocol: To further clarify the effect of antcins, HG-induced reduction in cell proliferation is determined. In FIG. 2D, to determine the effect of antcins on cell proliferation efficacy, 5×10^4 cells/well of HNDFs are incubated with antcins in 6-well plates in the presence of HG (30 mM) for 72 h. Number of viable cells is quantified by the tryphan blue exclusion method. Results are expressed as mean±S.E.M of three indipendent expriments. Statistical significance is set at ^ϕP<0.05 as compared to NG vs. HG and *P<0.05 as compared to HG vs. samples. […] Therefore, the molecular mechanism underlying the protective effect of ANM is explored next.
Furthermore, in FIG. 3C, to determine the effect of ANM or NAC on cell proliferation, 5×10^4 cells/well of HNDFs are incubated in a 6-well plate with ANM (10 μM) or NAC (100 μM) in the presence of HG (30 mM) for 72 h. Number of viable cells is quantified by the tryphan blue exclusion method. Results expressed as mean±S.E.M of three independent experiments. Statistical significance is set at ^ϕP<0.05 as compared to NG vs. HG and *P<0.05 as compared to HG vs. samples.
Cell proliferation is evaluated using trypan blue exclusion assay as described previously with minor modification. Cells are plated into 6-well plates at a density of 5×10^4 cells/well. After incubation overnight, cells are treated with test samples in the presence or absence of HG for 24-72 h. Cells exposed to 0.2% Trypan blue are then counted in a hemocytometer, and cells stained with Trypan blue are excluded. Percentage of viable cells is calculated based on the ratio of viable cells to total cell population in each well. The proliferation rate is calculated based on the number of viable cells in HG or sample-treated groups versus the NG-treated group.

`C=C(CCC(C)C1CCC2C3=C(C(=O)C(O)C21C)C1(C)CCC(O)C(C)C1CC3)C(C)C(=O)O` (stereo not shown) [ANM, antcin M] was tested, and the “HG-induced p53 and FoxO1 acetylation in HUVECs” value (p53 and FoxO1) was “significantly blocks”, the “intracellular ROS levels in HUVECs” value (HUVECs) was 6.1 fold and the SA-β-gal positive cells (HNDFs [1]; 10 μM compound + HG 30 mM, HG alone 9.59-fold (FIG. 2B)) was 1.51 fold. The “HG-induced senescence (SA-β-gal activity), control siRNA cells (SIRT-1 experiment)” value (HNDFs [1]; ANM 10 μM + HG) was “significantly inhibits”, the “HG-induced senescence (SA-β-gal), control siRNA cells (Nrf2 experiment)” value (HNDFs [1]; ANM 10 μM + HG) was “significantly inhibits” and the “HG-induced senescence (SA-β-gal), siNrf2-transfected cells” value (HNDFs [1]; ANM 10 μM + HG) was “significantly prevents”. For the same compound, the SA-β-gal positive cells (HNDFs [1]; ANM 10 μM or NAC 100 μM + HG 30 mM, HG alone 5.72-fold (FIG. 4B)) was 1.89 fold, the “SA-β-gal activity, SIRT-1 siRNA transfected cells” value (HNDFs [1]; ANM 10 μM or RES + HG) was “remains partially elevated” and the “HG-induced reduction in cell number, control siRNA cells” value (HNDFs [2]; ANM 10 μM + HG) was “significantly blocked”. For the same compound, the “protection of cell number, SIRT-1 siRNA transfected cells” value (HNDFs [2]; ANM 10 μM + HG) was “partial protection”, the “HG-induced reduction in cell proliferation, Nrf2 knock-down cells” value (HNDFs [2]; ANM + HG) was “partially inhibited” and the “cell proliferation, Nrf2 and SIRT-1 knock-down cells” value (HNDFs [2]; ANM + HG) was “fails to rescue”. For the same compound, the “cell proliferation (number of viable cells) vs HG group” value (HNDFs [2]; antcins 10 μM + HG 30 mM, trypan blue exclusion) was “two-fold increase; also recorded: increased cell proliferation”.

From patent US20180318199A1, “Pharmaceutical Composition Having Anti-Aging Properties against High-Glucose” (TAIWAN LEADER BIOTECH CORP., priority 2017, published 2018)
